Values quoted from earlier work, collected in the PKSmart pharmacokinetics tables (Seal et al. 2025).

Test: Lombardo, Berellini, Obach 2018, Drug Metab Dispos 46:1466, doi 10.1124/dmd.118.082966
Conditions: human; for MRT / Vd / clearance / half-life: in vivo, iv; for fraction unbound: plasma

| SMILES | MRT [h] | Vd [L/kg] | clearance [mL/min/kg] | fraction unbound | half-life [h] |
| --- | --- | --- | --- | --- | --- |
| O=S(=O)(c1cccc2cnccc12)N1CCCNCC1 | 0.26 | 1.22 |  |  |  |
| COc1cc2c(cc1OC)CC(=O)N(CCCN(C)C[C@H]1Cc3cc(OC)c(OC)cc31)CC2 | 2.69 | 1.66 | 10.3 | 0.28 |  |
| C=CC(=O)N1CCCC(n2nc(-c3ccc(Oc4ccccc4)cc3)c3c(N)ncnc32)C1 (stereo unspecified) |  |  |  | 0.03 |  |
| N/N=c1\[nH]ncc2ccccc12 | 0.29 | 1.5 | 85 | 0.12 | 1 |
| OC(c1ccccc1)(c1ccccc1)C12CC[N+](CCOCc3ccccc3)(CC1)CC2 | 0.57 | 1.23 | 36 | 0.11 | 19 |
| Nc1nc(=O)c2nc(CNc3ccc(C(=O)NC(CCC(=O)O)C(=O)O)cc3)cnc2[nH]1 (stereo unspecified) | 3.1 | 9.7 | 52 | 0.5 | 2.6 |
| C[C@H]1COc2c(N3CCN(C)CC3)c(F)cc3c(=O)c(C(=O)O)cn1c23 | 11 | 1.2 | 1.9 |  | 8.8 |
| CCOc1cc([C@@H](CS(C)(=O)=O)N2C(=O)c3cccc(CC(C)=O)c3C2=O)ccc1OC |  |  | 2.38 | 0.32 | 6.03 |
| COc1ccc2c(c1OC)C(=O)O[C@@H]2[C@H]1c2c(cc3c(c2OC)OCO3)CCN1C | 2.28 | 2.3 | 16.9 |  | 2.13 |
| CCOC(=O)C(CCc1ccccc1)NC(C)C(=O)N1CC2(CC1C(=O)O)SCCS2 (stereo unspecified) | 0.61 | 0.43 | 11.9 |  | 8.6 |
| CCN(CC)c1ccc2cc(C(=O)Nc3ccc4[nH]c(C(=O)N5C[C@@H](CCl)c6c5cc(OC(=O)Nc5ccccc5)c5[nH]cc(C)c65)cc4c3)oc2c1 | 0.51 | 0.09 | 2.9 |  | 0.48 |
| CC1(C)S[C@@H]2C(NC(=O)C(c3ccccc3)S(=O)(=O)O)C(=O)N2C1C(=O)O (stereo partly specified) | 1.6 | 0.15 | 1.6 | 0.5 | 1.2 |
| O=c1[nH]c(O)cn1/N=C/c1ccc(-c2ccc([N+](=O)[O-])cc2)o1 | 14 | 0.37 | 0.43 |  | 10 |
| CCC1=NC(=O)C2CSSCC/C=C/[C@H](CC(=O)NC(C(C)C)C(=O)N2)OC(=O)C(C(C)C)NC1=O (stereo partly specified) | 2.6 |  | 7.4 | 0.07 | 11 |
| CC(C)(C)c1nc(-c2cccc(NS(=O)(=O)c3c(F)cccc3F)c2F)c(-c2ccnc(N)n2)s1 | 3.8 | 0.65 | 2.86 | 0.003 | 2.6 |
| Cc1nccn1CCC(C(N)=O)(c1ccccc1)c1ccccc1 | 4.1 | 1.51 | 6.1 | 0.12 | 3.2 |
| CC(=O)Nc1c(I)c(NC(C)=O)c(I)c(C(=O)O)c1I | 2.6 |  | 1.7 | 1 |  |
| CCOC(Cc1ccc(OCCc2ccc(OS(C)(=O)=O)cc2)cc1)C(=O)O (stereo unspecified) | 56 | 0.13 | 0.039 |  | 45 |

| SMILES | MRT [h] | Vd [L/kg] | clearance [mL/min/kg] | fraction unbound | half-life [h] |
| --- | --- | --- | --- | --- | --- |
| CON=C(C(=O)NC1C(=O)N2C(C(=O)O)=C(CN3C=CN4NC=CC=C34)CS[C@H]12)c1nsc(N)n1 (stereo partly specified) | 2 | 0.24 | 2.1 | 0.74 | 1.7 |
| C[C@H]1CCc2c(N3CCC(O)CC3)c(F)cc3c(=O)c(C(=O)O)cn1c23 | 7.87 | 0.25 | 0.54 |  | 6.04 |
| CCC(CC)COC(C(=O)OCCN(C)C)(c1ccccc1)c1ccccc1 | 21 | 7.1 | 5.7 |  | 34 |
| Cc1ccc(-n2ccnc2)cc1C(O)c1c(C)cc(C(=O)O)cc1C (stereo unspecified) | 2.17 | 0.37 | 2.91 |  | 2.37 |
| CCN(CC)CCN1C(=O)c2c(c3c4cccc(Cl)c4n([C@@H]4O[C@H](CO)[C@@H](OC)[C@H](O)[C@H]4O)c3c3[nH]c4c(Cl)cccc4c23)C1=O | 45.4 | 8.9 | 3.13 |  | 48.9 |
| N#CN | 0.8 | 0.78 | 17 |  | 0.43 |
| COc1ccccc1Oc1c(NS(=O)(=O)c2ccc(C)cn2)nc(-c2ccncc2)nc1OC | 8.8 | 0.27 | 0.52 |  | 7.2 |
| CCC(C(N)=O)N1CCCC1=O (stereo unspecified) | 11.2 | 0.6 | 0.9 | 0.9 | 8.23 |
| CC(C=Cc1c(C)c(O)c2ccccc2c1O)=CCC[C@H](C)CCC[C@H](C)CCCC(C)C | 3.3 | 0.32 | 1.6 |  | 7.3 |
| COc1ccc(CCN(C)CCCN2Cc3cc(OC)c(OC)cc3C2=O)cc1OC | 2.62 | 2.4 | 15.7 | 0.12 | 2.04 |
| Cc1ccc(Nc2nccc(N(C)c3ccc4c(C)n(C)nc4c3)n2)cc1S(N)(=O)=O | 44.4 | 0.16 | 0.06 | 0.01 |  |
| Cc1nnc(SCC2=C(C(=O)O)N3C(=O)C(NC(=O)C(O)c4ccccc4)[C@H]3SC2)s1 (stereo partly specified) | 0.83 | 0.13 | 2.6 |  | 1 |
| Cc1c(C)c2ccc(OCCCN3CCN(Cc4ccc(Cl)cc4)CC3)cc2oc1=O | 16.5 | 1.3 | 1.3 | 0.05 | 19.2 |
| CCCC(=O)N1CCCN(c2nc(N)c3cc(OC)c(OC)cc3n2)CC1 | 2.5 | 0.72 | 4.8 | 0.06 | 2 |
| CN(c1nc2ccccc2s1)C1CCN(C[C@@H](O)COc2ccc(F)cc2)CC1 | 22.6 | 5.5 | 4.05 | 0.014 | 18.9 |
| Cc1ccccc1-c1cc(N2CCN(C)CC2)ncc1N(C)C(=O)C(C)(C)c1cc(C(F)(F)F)cc(C(F)(F)F)c1 | 32.6 | 5.54 | 2.83 | 0.003 | 34.3 |
| C=CCc1ccccc1OCC(O)CNC(C)C (stereo unspecified) | 3.6 | 3.2 | 15 |  | 2.5 |
